Test results from patent publication US20100216160A1, “METHOD FOR THE SCREENING […] ACTIVITY-MODULATING AGENTS AND MEANS FOR CARRYIING OUT SAID METHOD” (CYTOMICS SYSTEMS, priority 2005, published 2010).
Residues, ends and D or L forms follow the SMILES beside them. *: point of attachment. Cbz = O=C(OCc1ccccc1)*

Columns and labels:
Assay type in all cases: cell-based, Saccharomyces cerevisiae
[1] = system: proteasome of yeast cells (CYS343 strain, mAG-p21^WAF1/Cip1 fusion protein); assay: Flow cytometric quantification (FACS) of fluorescence of mAG-p21WAF1/Cip1 fusion protein in CYS343 yeast cells; conditions: 50 μM MG132 added with 2% glucose after 120 minutes galactose, time D1h, D2h, D3h
Procedure: (§1) The yeast cells were cultured in the presence or in the absence of the MG132 proteasome inhibitor.
(§2) All the cells were cultured in minimal medium in the presence of galactose as a carbon source for 120 minutes.
(§3) At the end of these 120 minutes, 2% glucose was added to the culture, in the presence and in the absence of 50 μM of a known proteasome inhibitor, the MG132.
(§4) The fluorescence emitted by the cells was quantified using a FacsCalibur flow cytometer (Beckton-Dickinson), immediately before adding galactose (I0), 1 and 2 hour(s) following the addition of galactose (I1 and I2) and 1, 2 and 3 hours (D1, D2 and D3) following the addition of glucose. The presence of Mg132 in the culture is indicated by “+MG132”. The fluorescence is expressed in arbitrary units.

[2] = system: proteasome of yeast cells (CYS344 strain, mAG-p21[6KR]^WAF1/Cip1 fusion protein); assay: Degradation of mAG-p21[6KR]WAF1/Cip1 fusion protein in CYS344 yeast cells, epifluorescence microscopy; conditions: 50 μM MG132 added with 2% glucose after 120 minutes galactose, 0, 60, 120, 180 minutes after glucose
Procedure: The yeast cells of the CYS344 strain were cultured in minimal medium in the presence of galactose as a carbon source for 120 minutes.
as §3
The cells were observed using an epifluorescence microscope (fluorescent microscope Nikon Eclipse fitted with an Omega XF116 filter). All the pictures were saved on a Hamamastu® camera using similar settings, then analyzed with the LUCIA G software, immediately before adding glucose (0 minute), and 60, 120 and 180 minutes (60, 120, 180 minutes) following the addition of glucose. The presence of MG132 in the culture is indicated by MG132″.

[3] = system: proteasome of the recombinant yeast cells (CYS343 strain, mAG-p21^WAF1/Cip1 fusion protein); assay: Degradation of mAG-p21WAF1/Cip1 fusion protein in CYS343 yeast cells, immunoblotting (Western blotting); conditions: 50 μM MG132 added with 2% glucose after 120 minutes galactose, 30, 60, 120 and 150 minutes after glucose
Procedure: (§5) The degradation of the fusion proteins comprising p21^WAF1/Cip1 or p21[6KR]^WAF1/Cip1 fused with mAG by the proteasome of the recombinant yeast cells of CYS 344 and CYS 343 strains was controlled by an immunoblotting technique, in the presence or in the absence of a proteasome inhibitor, the Mg132 compound.
(§6) All the yeast strains used were cultured and analyzed in a similar way.
(§7) The cells were cultured in minimal medium in the presence of galactose as a carbon source for 120 minutes.
(§8) At the end of these 120 minutes, 2% glucose was added to the culture, in the presence and in the absence of 50 μM of a known proteasome inhibitor, the Mg 132.
FIG. 3B illustrates the results obtained with the CYS343 recombinant yeast strain. Total proteins were prepared before adding galactose (0), 60 and 120 minutes following the addition of galactose (+galactose 0, 60, 120) and 30, 60, 120 and 150 minutes (+glucose, 30, 60, 120, 150) following the addition of glucose.
(§9) These proteins were analyzed by immunoblotting technique (“Western blotting”) using an antibody that recognized the p21^WAF1/Cip1 part of the fusion proteins (noted “mAG-p21^WAF1/Cip1” or “mAG-p21[6KR]^WAF1/Cip1” on FIG. 3).
(§10) The presence of MG132 in the culture is indicated by “+MG132” on FIG. 3. […]

[4] = system: proteasome of yeast cells (CYS344 strain, mAG-p21[6KR]^WAF1/Cip1 fusion protein); assay: Flow cytometric quantification (FACS) of fluorescence of mAG-p21[6KR]WAF1/Cip1 fusion protein in CYS344 yeast cells; conditions: 50 μM MG132 added with 2% glucose after 120 minutes galactose, time D1h, D2h, D3h
Procedure: as §1, §2, §3, §4

[5] = system: proteasome of the recombinant yeast cells (CYS344 strain, mAG-p21[6KR]^WAF1/Cip1 fusion protein); assay: Degradation of mAG-p21[6KR]WAF1/Cip1 fusion protein in CYS344 yeast cells, immunoblotting (Western blotting); conditions: 50 μM MG132 added with 2% glucose after 120 minutes galactose, 30, 60 and 120 minutes after glucose
Procedure: as §5, §6, §7, §8
The results are given on FIG. 3 (FIG. 3A and FIG. 3B). FIG. 3A illustrates the results obtained with the CYS344 recombinant yeast strain.
Total proteins were prepared before adding galactose (0), 60 and 120 minutes following the addition of galactose (+galactose 0, 60, 120) and 30, 60 and 120 minutes (+glucose, 30, 60, 120) following the addition of glucose.
as §9, §10

`CC(C)C[C@@H](C=O)NC(=O)[C@H](CC(C)C)NC(=O)[C@H](CC(C)C)NC(=O)OCc1ccccc1` [MG132] (Cbz-Leu-Leu-Leu-aldehyde) was tested, and the “degradation of the mAG-p21WAF1/Cip1 fusion protein (fluorescence, flow cytometry)” value [1] was “strongly inhibited”, the “fluorescence signal intensity of mAG-p21[6KR]WAF1/Cip1 fusion protein versus culture time (epifluorescence microscopy)” value [2] was “fluorescence signal intensity versus culture time was maintained” and the “degradation of the mAG-p21[wt]WAF1/Cip1 fusion protein (Western blotting)” value [3] was “inhibit the degradation of the fusion protein”. The “degradation of the mAG-p21[6KR]WAF1/Cip1 fusion protein (fluorescence, flow cytometry)” value [4] was “strongly inhibited” and the “degradation of the mAG-p21[6KR]WAF1/Cip1 fusion protein (Western blotting)” value [5] was “inhibit the degradation of the fusion protein”.
